# “And” between values parts separate entries of the source, which are not always exact repeats. Equal entries are not always repeated. Where a SMILES comes first, the peptide text is derived from it. Where no end group is shown, it is not given here. The star is where a group is joined. Ela = elaidoyl, CCCCCCCC/C=C/CCCCCCCC(=O)*; Palmitoyl = CCCCCCCCCCCCCCCC(=O)*
# How the values were obtained:
# Type in all cases: cell-based
# [1] = system: Collagen I synthesis, Normal Human Dermal Fibroblasts (NHDF); test: Collagen I synthesis by NHDF, direct ELISA on supernatants after 3 days; conditions: for Variation of Collagen I synthesis (mean, in % of negative control): NHDF, 3 days; for Collagen I synthesis, result in words: vs negative control
# Method: (§1) Products: Pal-KTFK (SEQ ID NO: 7), Ela-KTAK (SEQ ID NO: 9) and Ela-KTFK (SEQ ID No: 8) were tested from 2 to 6 ppm, and Pal-KAvaK was tested from 1 to 4 ppm. Solvent=DMSO 0.08%. TGF-beta1 10^−6%, was the positive control for collagen I and fibronectin studies.
# (§2) Principle of the study: Normal Human Dermal Fibroblasts (NHDF) were cultivated in an appropriate culture medium (i.e. complete DMEM with fetal calf serum). After cell anchorage, cell layers were rinsed with saline buffer and contact with molecules to be tested were performed in a complete DMEM without fetal calf serum. This medium contained ascorbate (sodium salt) and beta-aminopropionitrile, monofumarate. After 3 days of incubation, supernatants were collected and frozen. Survival was estimated on cell layer using a fluorescent probe. Collagen I was estimated using an original direct ELISA method, Fibronectin and Collagen IV were estimated using ELISA commercial kits.
# (§3) Results: Statistical analysis were performed on Collagen I data (n=5/assay) or fibronectin data (n=5/assay) or Collagen IV data (n=5/assay). Results obtained with molecules were compared to negative control. All data are in ng/10E6 cells. A Student t test for non paired values was used; significativity was obtained if p<0.05 or p<0.01.
# [2] = system: Fibronectin synthesis, Normal Human Dermal Fibroblasts (NHDF); test: Fibronectin synthesis by NHDF, commercial ELISA kit on supernatants after 3 days; conditions: for Variation of Fibronectin synthesis (mean, in % of negative control): NHDF, 3 days; for Fibronectin synthesis, result in words: vs negative control
# Method: as §1, §2, §3
# [3] = system: Normal Human Dermal Fibroblasts (NHDF); test: Survival estimated on cell layer using a fluorescent probe; conditions: 3 days of incubation
# Method: as §2
# [4] = system: Collagen IV synthesis, Normal Human Dermal Fibroblasts (NHDF); test: Collagen IV synthesis by NHDF, commercial ELISA kit on supernatants after 3 days; conditions: for Variation of Collagen IV synthesis (mean, in % of negative control): NHDF, 3 days
# Method: as §1, §2, §3
# [5] = positive control, TGF-beta1 10^−6% (10 ppb)
Compound,"Variation of Collagen I synthesis (mean, in % of negative control) ([1]; 2 ppm) [%]","Variation of Collagen I synthesis (mean, in % of negative control) ([1]; 4 ppm) [%]","Variation of Collagen I synthesis (mean, in % of negative control) ([1]; 6 ppm) [%]","Collagen I synthesis, result in words ([1]; 6 ppm)","Variation of Fibronectin synthesis (mean, in % of negative control) ([2]; 2 ppm) [%]","Variation of Fibronectin synthesis (mean, in % of negative control) ([2]; 4 ppm) [%]","Fibronectin synthesis, result in words ([2]; 4 ppm)","Variation of Fibronectin synthesis (mean, in % of negative control) ([2]; 6 ppm) [%]","Variation of Collagen IV synthesis (mean, in % of negative control) ([4]; 2 ppm) [%]","Variation of Collagen IV synthesis (mean, in % of negative control) ([4]; 4 ppm) [%]",other results
Ela-Lys-Thr-Ala-Lys (Ela-KTAK) [N-elaidoyl tetrapeptide Lys-Thr-Ala-Lys],6,18,45,increase,16,32,increase,31,–,–,–
"CCCCCCCCCCCCCCCC(=O)N[C@@H](CCCCN)C(=O)N[C@H](C(=O)N[C@@H](Cc1ccccc1)C(=O)N[C@@H](CCCCN)C(=O)O)[C@@H](C)O [Pal-KTFK, Pal-Lys-Thr-Phe-Lys] (Palmitoyl-KTFK-OH)",–,–,–,–,–,–,–,–,–,–,maximal concentration accepted by the cells [3]: ~6 ppm
Ela-Lys-Thr-Phe-Lys (Ela-KTFK) [N-elaidoyl tetrapeptide Lys-Thr-Phe-Lys],6,19,49,significant increase,10,25,–,42,10,7,"Fibronectin synthesis, result in words ([2]; 6 ppm): significant increase; Variation of Collagen IV synthesis (mean, in % of negative control) ([4]; 6 ppm): 7%"
Pal-Lys-Ava-Lys [Pal-KAvaK],14,49,–,–,15,54,increase,–,9,23,"Variation of Collagen I synthesis (mean, in % of negative control) ([1]; 1 ppm): 1%; Collagen I synthesis, result in words ([1]; 4 ppm): increase; Variation of Fibronectin synthesis (mean, in % of negative control) ([2]; 1 ppm): 14%; Variation of Collagen IV synthesis (mean, in % of negative control) ([4]; 1 ppm): 8%; Collagen IV synthesis, result in words ([4]; 4 ppm, vs negative control): increase"
"TGF-beta: TGF-beta1 10^−6%, the positive control for collagen I and fibronectin studies [reference compound]",–,–,–,–,–,–,–,–,–,–,"Collagen I synthesis, result in words [1, 5]: significant increase; Variation of Fibronectin synthesis (mean, in % of negative control) ([2]; 10 ppb): 124% and 85% and 87%; Fibronectin synthesis, result in words [2, 5]: significant increase; Variation of Collagen IV synthesis (mean, in % of negative control) ([4]; 10 ppb): 12%"
